According to ChEMBL document CHEMBL1811820, “Vicenin-2, a potential anti-inflammatory constituent of Urtica circularis” (J Nat Prod, 2011):
Calls of active or inactive are those of the source. The calls are words filed in the database; no cut-off is given here.

How the values were obtained:
[1] = test system: Rattus norvegicus; experiment: Antiinflammatory activity against Sprague-Dawley rat assessed as inhibition of carrageenan-induced paw edema at 10 mg/kg, ip administered 30 mins prior to carrageenan challenge measured after 5 hrs; format: functional; conditions: route intraperitoneal
[2] = test system: Mus musculus; experiment: Antiinflammatory activity against Swiss mouse assessed as inhibition of 12-O-tetradecanoylphorbol acetate-induced ear edema at 1 mg/ear, topically administered measured after 4 hrs of 12-O-tetradecanoylphorbol acetate-challenge; format: functional
[3] = Pro-inflammatory activity in mouse peritoneal macrophage assessed as increased NO production at 1000 ug/mL after 10 mins using Griess reagent by spectrophotometry in presence of LPS; format: ADME, cell-based; conditions: peritoneal macrophage cell
[4] = test system: Peritoneal macrophage cell; experiment: Antiinflammatory activity in mouse peritoneal macrophage assessed as decrease in LPS-stimulated TNFalpha release at 0.01 to 10 ug/mL after 24 hrs by ELISA relative to control in presence of LPS; format: functional, cell-based
[5] = Antiinflammatory activity in mouse peritoneal macrophage assessed as decreased LPS-stimulated NO production at 0.01 to 1 ug/mL after 10 mins using Griess reagent by spectrophotometry; format: functional, Peritoneal macrophage cell
[6] = target: Transcription factor p65 (Mus musculus) (UniProt Q04207); experiment: Inhibition of NF-kappaB p65 nuclear translocation in LPS-stimulated mouse peritoneal macrophage at 0.01 to 10 ug/mL after 24 hrs by nuclear absorbance assay
Sequence of Transcription factor p65 (Mus musculus) (Q04207 whole entry): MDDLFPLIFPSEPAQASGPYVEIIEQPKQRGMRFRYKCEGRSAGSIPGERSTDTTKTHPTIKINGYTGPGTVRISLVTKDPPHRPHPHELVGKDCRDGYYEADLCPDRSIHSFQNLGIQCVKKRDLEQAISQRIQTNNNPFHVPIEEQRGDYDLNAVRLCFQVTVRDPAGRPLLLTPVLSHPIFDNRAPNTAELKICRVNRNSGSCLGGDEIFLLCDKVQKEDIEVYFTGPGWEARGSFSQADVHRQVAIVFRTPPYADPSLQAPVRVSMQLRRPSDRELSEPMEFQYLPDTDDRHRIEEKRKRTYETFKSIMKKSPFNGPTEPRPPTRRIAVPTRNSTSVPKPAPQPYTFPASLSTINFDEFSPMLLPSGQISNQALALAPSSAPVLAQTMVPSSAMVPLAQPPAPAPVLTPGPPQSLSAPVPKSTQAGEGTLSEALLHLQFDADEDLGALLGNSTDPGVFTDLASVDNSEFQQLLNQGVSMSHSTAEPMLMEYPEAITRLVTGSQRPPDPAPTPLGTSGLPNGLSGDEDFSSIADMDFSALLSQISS

[7] = target: Transcription factor p65 (Mus musculus) (UniProt Q04207); experiment: Increase in NF-kappaB p65 nuclear translocation in LPS-stimulated mouse peritoneal macrophage at 1000 ug/mL after 24 hrs by nuclear absorbance assay
[8] = Antiinflammatory activity in mouse peritoneal macrophage assessed as increase in LPS-stimulated TNFalpha release at 100 to 1000 ug/mL after 24 hrs by ELISA relative to control in presence of LPS; format: functional, Peritoneal macrophage cell
[9] = Antiinflammatory activity in mouse peritoneal macrophage assessed as decreased LPS-stimulated NO production at 10 to 500 ug/mL after 10 mins using Griess reagent by spectrophotometry; format: functional, Peritoneal macrophage cell
[10] = target: Transcription factor p65 (Mus musculus) (UniProt Q04207); experiment: Inhibition of NF-kappaB p65 nuclear translocation in LPS-stimulated mouse peritoneal macrophage at 10 to 500 ug/mL after 24 hrs by nuclear absorbance assay

SMILES	inhibition in vivo at 10 mg/kg [1] [%]	inhibition (INH) [2] [%]	Activity [3]	Activity [4]	inhibition (INH) [5] [%]	inhibition [6]	Activity [7]	Activity [8] [%]	inhibition (INH) [9] [%]	inhibition [10]
COc1ccc2c(c1)c(CC(=O)O)c(C)n2C(=O)c1ccc(Cl)cc1 [INDOMETHACIN]	38.4	87.3	–	–	–	–	–	–	–	–
O=c1cc(-c2ccc(O)cc2)oc2c([C@@H]3O[C@H](CO)[C@@H](O)[C@H](O)[C@H]3O)c(O)c([C@@H]3O[C@H](CO)[C@@H](O)[C@H](O)[C@H]3O)c(O)c12	–	–	Toxic	Active	70	Active	inactive	62	16	inactive
